Data from article PMC10504751, “Chalcone/1,3,4-Oxadiazole/Benzimidazole hybrids as novel anti-proliferative agents inducing apoptosis and inhibiting EGFR & BRAFV^600E” (BMC Chemistry, 2023).
Several values for one entry are separate records, joined by “and”; a condition that tells them apart may be missing. Equal values may be shown once.

Experiments:
[1] = MTT cell viability assay in normal cells; format: cell-based; settings: human, MCF-10A normal mammary epithelial cells
Protocol: To check the safety of prepared compounds and evaluate their selectivity towards tumor cells over normal ones, the toxicity of compounds 7a-x were evaluated by 3-(4,5-Dimethylthiazole-2-yl)-2,5-diphenyltetrazol (MTT) assay on the normal human mammary epithelial cell line (MCF-10 A). The human mammary epithelial cell lines were incubated for four days with a concentration of 50 µM of compounds 7a-x.
MTT assay was done to determine the effect of the synthesized compounds on the viability of mammary epithelial cells (MCF-10 A). Compounds 7a-x were incubated with MCF-10 A cells for 4 days at 50 µM concentration, and the viability of cells was determined. See Appendix A.
MTT assay was carried out to study the effect of compounds on mammary epithelial cells (MCF-10A).^7, ^8 The medium in which cells were propagated contained Dulbecco's modified Eagle's medium (DMEM)/ Ham's F-12 medium (1:1) supplemented with epidermal growth factor (20 ng/mL), hydrocortisone (500 ng/mL), insulin (10 μg/mL), 2 mM glutamine and 10% foetal calf serum. After every 2-3 days, the cells were passaged using trypsin ethylenediamine tetra acetic acid (EDTA). The cells were seeded at a density of 10^4 cells mL^-1 in flat-bottomed culture plates containing 96 wells each. After 24 h, medium was removed from the plates and the compounds in (in 0.1% DMSO) were added (in 200 μL medium to yield a final concentration of 0.1% v/v) to the wells of plates. A single compound was designated with four wells followed by incubation of plates for 96h at 37°C. After incubation, medium was removed completely from the plates followed by addition of MTT (0.4 mg/mL in medium) to each well and subsequent incubation of plates for 3h. MTT (along with the medium) was removed and DMSO (150μL) was added to each well of the culture plates, followed by vortexing and subsequent measurement of absorbance (at 540 nm) using microplate reader.

[2] = test system: MCF-7; experiment: Propidium iodide anti-proliferative assay; format: cell-based; settings: Homo sapiens, MCF7; 48 h incubation; read-out: IC50 ± SEM MCF-7
Protocol: (§1) The propidium iodide (PI) tests^31, 32 were further used for assessment of the IC50 of all synthesized compounds and compared to Doxorubicin as a positive control against four cancer cell lines; pancreatic cancer cell line (Panc-1), epithelial line cancer cell (A-549), breast cancer cell line (MCF-7), and colon cancer cell line (HT-29).
(§2) Using the propidium iodide fluorescence assay with doxorubicin as the reference drug, IC50 of the 24 compounds 7a-x, was carried out according to a previously reported procedure^31, 32 against a panel of four human cancer cell lines; epithelial cancer cell line (A-549), breast cancer cell line (MCF-7), colon cancer cell line (HT-29) and pancreas cancer cell line (Panc-1). Compounds 7a-x were incubated with cancer cells for 2 days at different concentrations. See Appendix A.
(§3) To explore the antiproliferative potential of compounds propidium iodide fluorescence assay was performed using different cell lines (melanoma cancer cell line LOX-IMVI, pancreatic cancer cell line (Panc-1), epithelial line cancer cell (A-549), breast cancer cell line (MCF-7), and colon cancer cell line (HT-29). To calculate the total nuclear DNA, a fluorescent dye (propidium iodide, PI) is used which can attach to the DNA,^9,^10 thus offering a quick and precise technique. PI cannot pass through the cell membrane and its signal intensity can be considered as directly proportional to the quantity of cellular DNA. Cells whose cell membranes are damaged or have changed permeability are counted as dead ones. The assay was performed by seeding the cells of different cancer cell lines at a density of 3000-7500 cells/well (in 200µl medium) in culture plates followed by incubation for 24h at 37 °C in humidified 5% CO2/95% air atmospheric conditions. The medium was removed; the compounds were added to the plates at 10 µM concentrations (in 0.1% DMSO) in triplicates, followed by incubation for 48 h. DMSO (0.1%) was used as control. After incubation, medium was removed followed by the addition of PI (25 µl, 50µg/mL in water/medium) to each well of the plates. At -80 °C, the plates were allowed to freeze for 24 h, followed by thawing at 25 °C. A fluorometer (Polar-Star BMG Tech) was used to record the readings at excitation and emission wavelengths of 530 and 620 nm for each well. The percentage cytotoxicity of compounds was calculated using the following formula:
(§4) Where ATC= Absorbance of treated cells and AC= Absorbance of control. […]

[3] = test system: A-549; experiment: Propidium iodide anti-proliferative assay; format: cell-based; settings: Homo sapiens, A549; 48 h incubation; read-out: IC50 ± SEM A-549
Protocol: as §1, §2, §3, §4

[4] = test system: HT-29; experiment: Propidium iodide anti-proliferative assay; format: cell-based; settings: Homo sapiens, 48 h incubation, read-out: IC50 ± SEM HT-29
Protocol: as §1, §2, §3, §4

[5] = test system: Panc-1; experiment: Propidium iodide anti-proliferative assay; format: cell-based; settings: Homo sapiens, 48 h incubation, read-out: IC50 ± SEM Panc-1
Protocol: as §1, §2, §3, §4

[6] = test system: Panc-1, A-549, MCF-7 and HT-29; experiment: Propidium iodide anti-proliferative assay, four cell lines together; format: cell-based; settings: Homo sapiens; range over Panc-1, A-549, MCF-7, HT-29; read-out: IC50 range on the four tested cell lines
Protocol: as §1, §2
as §3, with “The medium was removed; the compounds were added to the plates at 10 µM concentrations (in 0.1% DMSO) in triplicates, followed by incubation for 48 h. DMSO (0.1%) was used as control. After incubation, medium was removed followed by the addition of PI (25 µl, 50µg/mL in water/medium) to each well of the plates. At -80 °C, the plates were allowed to freeze for 24 h, followed by thawing at 25 °C.” left out
as §4

[7] = test system: Caspase-8 in MCF-7 breast cancer cells; experiment: Caspase-8 assay; format: cell-based, human
[8] = test system: Cytochrome C in MCF-7 human breast cancer cell line; experiment: Cytochrome C assay; format: cell-based
[9] = test system: Caspase-3 in MCF-7 breast cancer cells; experiment: Caspase-3 assay
Protocol: All reagents were allowed to reach room temperature before use. All liquid reagents were gently mixed before use. The number of 8-well strips needed for the assay was determined. These were inserted into the frame(s) for current use. A total of 100 µL of the Standard Diluent Buffer was added to the zero standard wells. Well(s) reserved for chromogen blank were left empty. A total of 100 µL of standards and controls or diluted samples was added to the appropriate microtiter wells. The sample dilution chosen was optimized for each experimental system. The side of the plate was gently tapped on to
mix. Wells were covered with a plate cover and incubated for 2 h at room temperature. The solution was thoroughly aspirated or decanted from the wells and the liquid was discarded; wells were washed four times. […] The side of the plate was gently tapped on to mix. The plate was covered with a plate cover and incubated for 1h at room temperature. The solution was thoroughly aspirated or decanted from wells and the liquid was discarded; wells were washed four times. A total of 100 µL Anti-Rabbit IgG HRP Working Solution was added to each well except the chromogen blank(s). The working dilution was prepared as described in Preparing IgG HRP. Wells were covered with the plate cover and incubated for 30 min at room temperature. The solution was thoroughly aspirated or decanted from the wells and the liquid was discarded. Wells were washed four times. A total of 100 µL of Stabilized Chromogen was added to each well. The liquid in the wells began to turn blue. It was incubated for 30 min at room temperature and in the dark. The incubation time for chromogen substrate was determined by the microtiter plate reader used. Many plate readers have the capacity to record a maximum optical density (O.D.) of 2.0. The O.D. values were monitored, and the substrate reaction was stopped before the O.D. of the positive wells exceeds the limits of the instrument. The O.D. values at 450 nm could only be read after the Stop Solution had been added to each well. A total of 100 µL of Stop Solution was added to each well. The side of the plate was gently tapped to mix. The solution in the wells changed from blue to yellow. The absorbance of each well was read at 450 nm, having blanked the plate reader against a chromogen blank composed of 100 µL each of Stabilized Chromogen and Stop Solution. The plate was read within 2 h after adding the Stop Solution. A curve fitting software was used to generate the standard curve.
The concentrations for unknown samples and controls from the standard curve were read. Value(s) obtained for sample(s) by the appropriate dilution factor were multiplied to correct for the dilution in step 3.

[10] = test system: BAX in MCF-7; experiment: BAX activation assay
Protocol: All reagents were brought to room temperature for at least 30 min before opening (except the human BAX-α Standard). Human BAX-α Standard solution was not be left at room temperature for more than 10 min. Duplicates of all standards, controls, and samples were run. The Assay Layout Sheet was used to determine the number of wells to be used, and any remaining wells were put with the desiccant back into the pouch, and the ziplock was sealed. Unused wells were stored at 4 ◦C. A total of 100 µL of Assay Buffer was pipetted into the S0 (0 pg/mL standard) wells. A total of 100 µL of Standards #1 through #6 was pipetted into the appropriate wells. A total of 100 µL of the samples was pipetted into the appropriate wells. The plate was gently tapped to mix the contents. The plate was sealed and incubated at room temperature on a plate shaker for 1 h at ~500 rpm. The contents of the wells were emptied and washed by adding 400 µL of wash solution to every well. The wash was repeated four more times for a total of five washes. After the final wash, the wells were emptied or aspirated and firmly the plate on a lint-free paper towel was tapped to remove any remaining wash buffer. A total of 100 µL of yellow antibody was pipetted into each well, except the Blank. The plate was sealed and incubated at room temperature on a plate shaker for 1 h at ~500 rpm. The contents of the wells were emptied and washed by adding 400 µL of wash solution to every well. The wash was repeated four more times for a total of five washes. After the final wash, the wells were emptied or aspirated, and the plate was firmly tapped on a lint-free paper towel to remove any remaining wash buffer. A total of 100 µL of blue Conjugate was added to each well, except the Blank. The plate was sealed and incubated at room temperature on a plate shaker for 30 min at ~500 rpm. The contents of the wells were emptied and washed by adding 400 µL of wash solution to every well. The wash was repeated four more times for a total of five washes. After the final wash, the wells were emptied or aspirated and the plate was firmly tapped on a lint-free paper towel to remove any remaining wash buffer. A total of 100 µL of Substrate Solution was pipetted into each well. It was incubated for 30 min at room temperature on a plate shaker at ~500 rpm. A total of 100 µL Stop Solution was pipetted into to each well. The plate reader was blanked against the Blank wells, and the optical density was read at 450 nm. The average net optical density (OD) bound for each standard and sample was calculated by subtracting the average Blank OD from the average OD for each standard and sample. Using linear graph paper, the Average Net OD for each standard versus BAX concentration in each standard were plotted. A straight line was approximated through the points. The concentration of BAX in the unknowns could be determined by interpolation.

[11] = test system: Bcl-2 in MCF-7; experiment: Bcl-2 inhibition assay
Protocol: All reagents were thoroughly mixed without foaming before use. The microwells were washed twice with approximately 300 µL Wash Buffer per well with the thorough aspiration of microwell contents between washes. Care was taken not to scratch the surface of the microwells. After the last wash, the wells were emptied and microwell strips were tapped on an absorbent pad or paper towel to remove excess Wash Buffer. The microwell strips were used immediately after washing or placed upside down on a wet absorbent paper for not longer than 15 min. Wells were not allowed to dry. A total of 100 µL of Sample Diluent was added in duplicate to all standard wells and the blank wells. Standard (1:2 dilution) in duplicate was prepared ranging from 32 to 0.5 ng/mL. A total of 100 µL of Sample Diluent, in duplicate, was added to the blank wells. A total of 80 µL of Sample Diluent, in duplicate, was added to the sample wells. A total of 20 µL of each sample, in duplicate, was added to the designated wells. A total of 50 µL of diluted biotin was added, conjugated to all wells, including the blank wells. It was covered with a plate cover and incubated at room temperature on a microplate shaker at 100 rpm for 2 h. The plate cover was removed and the wells were emptied. Microwell strips were washed times as described in Step 2. A total of 100 µL of diluted Streptavidin-HRP was added to all wells, including the blank wells. It was covered with a plate cover and incubated at room temperature on a microplate shaker at 100 rpm for 1 h. The plate cover was removed and the wells were emptied. Microwell strips were washed three times, as described in Step 2. A total of 100 µL of mixed TMB Substrate Solution was pipetted into all wells, including the blanks. The microwell strips were incubated at room temperature (18 ◦C to 25 ◦C) for about 15 min, on a rotator set at 100 rpm. Direct exposure to intense light was avoided. The point at which the substrate reaction is stopped was determined by the ELISA reader. Many ELISA readers record absorbance only up to 2.0 O.D. Therefore, the color development within individual microwells was watched by the person running the assay, and the substrate reaction was stopped before positive wells were no longer properly detectable. The enzyme reaction was stopped by quickly pipetting 100 µL of Stop Solution into each well, including the blank wells. It was important that the Stop Solution was spread quickly and uniformly throughout the microwells to inactivate the enzyme completely. Results were read immediately after the Stop Solution was added or within one hour if the microwell strips were stored at 2–8 ◦C in the dark. The absorbance of each microwell was read on a spectrophotometer using 450 nm as the primary wavelength.

[12] = test system: Caspase-9 in MCF-7 breast cancer cells; experiment: Caspase-9 assay; format: cell-based, human

SMILES	viability at 96 h, 50 µM [1] [%]	melting point [°C]	IC50 [2] [µM]	IC50 [3] [µM]	IC50 [4] [µM]	IC50 [5] [µM]	IC50 [6] [µM]	Caspase-8 Fold change ([7]; MCF-7, vs untreated control) [fold]	Caspase-8 Conc ([7]; MCF-7 breast cancer cells) [ng/mL]	Cytochrome C Fold change ([8]; MCF-7, vs untreated control) [fold]	Cytochrome C Conc ([8]; MCF-7 breast cancer cells) [ng/mL]	Caspase-3 Fold change ([9]; MCF-7, vs untreated control) [fold]	Caspase-3 Conc ([9]; MCF-7 breast cancer cells) [pg/mL]	BAX Conc ([10]; MCF-7)	BAX Fold change ([10]; MCF-7, vs untreated control) [fold]	Bcl-2 Conc ([11]; MCF-7)	Bcl-2 Fold reduction ([11]; MCF-7, vs untreated control) [fold]	Caspase-9 Fold change ([12]; MCF-7, vs untreated control) [fold]	Caspase-9 Conc ([12]; MCF-7 breast cancer cells) [ng/mL]
COc1ccc(/C=C/C(=O)c2ccc(NC(=O)CSc3nnc(-c4ccc5[nH]c(-c6ccc(Cl)cc6)nc5c4)o3)cc2)cc1OC [Compound 7i, 2-{5-[2-(4-Chlorophenyl)-1 H-benzo[d]imidazol-5-yl]-1,3,4-oxadiazol-2-ylthio}-N-{4-[(E)-3-(3,4-dimethoxyphenyl)acryloyl]phenyl}acetamide]	84	208 to 210	9.2 ± 1	9.7 ± 1.1	10.2 ± 1.3	10.2 ± 1.2													
COc1cc(/C=C/C(=O)c2ccc(NC(=O)CSc3nnc(-c4ccc5[nH]c(-c6ccc(Cl)cc6)nc5c4)o3)cc2)cc(OC)c1OC [Compound 7j, 2-{5-[2-(4-Chlorophenyl)-1 H-benzo[d]imidazol-5-yl]-1,3,4-oxadiazol-2-ylthio}-N-{4-[(E)-3-(3,4,5-trimethoxyphenyl)acryloyl]phenyl}acetamide]	89	223 to 225	9.4 ± 1.2	9.95 ± 1.1	10.7 ± 1.1	10.3 ± 1.2													
COc1ccc(/C=C/C(=O)c2ccc(NC(=O)CSc3nnc(-c4ccc5[nH]c(-c6ccc(OC)c(OC)c6)nc5c4)o3)cc2)cc1OC [Compound 7s, 2-{5-[2-(3,4-Dimethoxyphenyl)-1 H-benzo[d]imidazol-5-yl]-1,3,4-oxadiazol-2-ylthio}-N-{4-[(E)-3-(3,4-dimethoxyphenyl)acryloyl]phenyl}acetamide]	87	190 to 193	3.15 ± 0.5	3.8 ± 0.6	4.55 ± 0.6	4.3 ± 0.6													
COc1ccc(-c2nc3cc(-c4nnc(SCC(=O)Nc5ccc(C(=O)/C=C/c6cc(OC)c(OC)c(OC)c6)cc5)o4)ccc3[nH]2)cc1OC [Compound 7t, 2-{5-[2-(3,4-Dimethoxyphenyl)-1 H-benzo[d]imidazol-5-yl]-1,3,4-oxadiazol-2-ylthio}-N-{4-[(E)-3-(3,4,5-trimethoxyphenyl)acryloyl]phenyl}acetamide]	88	190 to 193	10.1 ± 1	10.6 ± 1.1	10.8 ± 1.2	10.9 ± 1.2													
COc1ccc(/C=C/C(=O)c2ccc(NC(=O)CSc3nnc(-c4ccc5[nH]c(-c6cc(OC)c(OC)c(OC)c6)nc5c4)o3)cc2)cc1 [Compound 7w, 2-{5-[2-(3,4,5-Trimethoxyphenyl)-1 H-benzo[d]imidazol-5-yl]-1,3,4-oxadiazol-2-ylthio}-N-{4-[(E)-3-(4-methoxyphenyl)acryloyl]phenyl}acetamide]	91	200 to 204	10.2 ± 1.2	10.9 ± 1.1	11.2 ± 1.3	11.2 ± 1.2													
COc1ccc(/C=C/C(=O)c2ccc(NC(=O)CSc3nnc(-c4ccc5[nH]c(-c6cc(OC)c(OC)c(OC)c6)nc5c4)o3)cc2)cc1OC [Compound 7x, 2-{5-[2-(3,4,5-Trimethoxyphenyl)-1 H-benzo[d]imidazol-5-yl]-1,3,4-oxadiazol-2-ylthio}-N-{4-[(E)-3-(3,4-dimethoxyphenyl)acryloyl]phenyl}acetamide]	85	212 to 215	10.8 ± 1.1	11.5 ± 1.2	12.5 ± 1.5	11.8 ± 1.2													
COc1cccc2c1C(=O)c1c(O)c3c(c(O)c1C2=O)C[C@@](O)(C(=O)CO)C[C@@H]3O[C@H]1C[C@H](N)[C@H](O)[C@H](C)O1 [Doxorubicin, reference compound]			0.9 ± 0.1	1.21 ± 0.1	1.01 ± 0.1	1.41 ± 0.1	0.9 to 1.41	10.00	1.750	13.10	0.604	7.65	503.200 ± 4.20	276 pg/mL and 276.500 pg/mL	32.5	0.98 ng/mL and 0.985 ng/mL	5.1	17.40	16.200
